# Test results taken from patent EP1124556B1, “USE OF OPTICALLY PURE (R)-TOFISOPAM FOR TREATING AND PREVENTING ANXIETY DISORDERS” (priority 1998, dated 2000).
# Several values for one entry are separate records, joined by “and”; a condition that tells them apart may be missing. Equal values may be shown once.
# What was measured:
# Male Long Evans rats = assay: Head-twitch response assay (potentiation of 5-MeODMT-induced head-twitches) for anxiolytic activity; type: in vivo; set-up: Score: scale not given here; conditions: for Head Twitch: one hour before interperitoneal 3mg/kg 5-MeODMT, number of head-twitches over 1-5 minute period post injection, individual rats No. 1-3; for Score: group of 3 rats
# Experimental: Dry preparations of tofisopam, R-tofisopam or S-tofisopam were dissolved in 2% Tween 80/5% DMSO for oral administration in a blind assay. Diazepam (Sigma, U.S.A.) was similarly dissolved in DMSO (Merck, Germany), distilled water and Tween 80 (Wako Pure Industries, Ltd., Japan).
# Male Long Evans rats provided by animal breeding center of MDS Panlabs Taiwan, Ltd., were used. Space allocation for animals was as follows: 45 x 23 x 15 cm for 6 rats. Rats were housed in APEC® (Allentown Gaging, Allentown, NJ 08501, U.S.A.) cages in a positive pressure isolator (NuAire® , Mode: Nu-605, airflow velocity 50± 5 ft/min, HEPA Filter). All animals were maintained in a controlled temperature (22°C - 24°C) and humidity (60% - 80%) environment with 12 hours light dark cycles for at least one week in MDS Panlabs Taiwan laboratory prior to being used. Free access to standard lab chow for rats (Fwusow Industry Co., Limited, Taiwan) and tap water was granted. All aspects of this work including housing, experimentation and disposal of animals were performed in general accordance with the International Guiding Principles for Biomedical Research Involving Animals (CIOMS Publication No. ISBN 92 90360194, 1985).
# Moser, P.C., "The Effect of Novel Axiolytics on the Head-Twitch Response in Mice" British J. Pharmacol Suppl. 99:248P (1990) . Based on those assays, test substances were administered orally to the rats one hour before interperitoneal injection of 3mg/kg 5-MeODMT. The number of head-twitches over a 1-5 minute period post injection were recorded (Table 1).
# site II of HSA = site II of HSA (Homo sapiens, UniProt P02768); conditions: cited from earlier work
# [1] = Conformer interconversion in solution; type: physicochemical
# Experimental: The enantiomers of tofisopam were resolved by chiral chromatography. For example, tofisopam (42.8mg dissolved in acetonitrile) was loaded onto a Chirobiotic V column (ASTEC, Whippany, NJ). Elution of the compounds with MTBE/ACN 90/10 (v/v), 40ml/min, was monitored at 310nm, 2mm path. The R(+) enantiomer was the first compound to elute from the column. The R(+) enantiomer was collected, dried and stored for use in biological assays. R(-)-tofisopam ("A" ' ) , S (-/+) tofisopam ("B" and "B' ") , and residual R(+)-tofisopam ("A") co-eluted and was collected in a subsequent fraction (e.g., FIG. 1, fraction 2). Approximately 20% of the R(+)-tofisopam in fraction 1 is converted into R(-)-tofisopam if left in solution for 24 hours. A 80/20 stable equilibrium (R+/R-) was observed between the two conformers in MTBE/ACN (90/10) solution at room temperature.
# [2] = cited from earlier work
# benzodiazepine receptor = conditions: cited from earlier work
# [3] = in vivo; cited from earlier work
# patients = conditions: cited from earlier work
# dopamine (D2L) receptor = dopamine (D2L) receptor (Homo sapiens, UniProt P14416); assay: Dopamine receptor binding (preliminary results)
# dopamine (D2L) receptor, sequence (P14416 whole entry): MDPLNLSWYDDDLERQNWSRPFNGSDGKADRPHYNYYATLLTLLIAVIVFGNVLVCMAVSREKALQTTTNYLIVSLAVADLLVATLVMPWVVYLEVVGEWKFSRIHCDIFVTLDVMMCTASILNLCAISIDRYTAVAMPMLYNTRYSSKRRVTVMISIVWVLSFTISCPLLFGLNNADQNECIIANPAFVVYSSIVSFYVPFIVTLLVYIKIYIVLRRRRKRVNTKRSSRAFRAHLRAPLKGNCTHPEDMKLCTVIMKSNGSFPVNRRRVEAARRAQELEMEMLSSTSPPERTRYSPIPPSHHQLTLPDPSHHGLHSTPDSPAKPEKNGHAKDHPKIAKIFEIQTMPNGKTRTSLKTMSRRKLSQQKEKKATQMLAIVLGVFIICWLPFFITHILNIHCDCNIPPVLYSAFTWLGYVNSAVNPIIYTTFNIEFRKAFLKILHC
# site II of HSA, sequence (P02768 25-609): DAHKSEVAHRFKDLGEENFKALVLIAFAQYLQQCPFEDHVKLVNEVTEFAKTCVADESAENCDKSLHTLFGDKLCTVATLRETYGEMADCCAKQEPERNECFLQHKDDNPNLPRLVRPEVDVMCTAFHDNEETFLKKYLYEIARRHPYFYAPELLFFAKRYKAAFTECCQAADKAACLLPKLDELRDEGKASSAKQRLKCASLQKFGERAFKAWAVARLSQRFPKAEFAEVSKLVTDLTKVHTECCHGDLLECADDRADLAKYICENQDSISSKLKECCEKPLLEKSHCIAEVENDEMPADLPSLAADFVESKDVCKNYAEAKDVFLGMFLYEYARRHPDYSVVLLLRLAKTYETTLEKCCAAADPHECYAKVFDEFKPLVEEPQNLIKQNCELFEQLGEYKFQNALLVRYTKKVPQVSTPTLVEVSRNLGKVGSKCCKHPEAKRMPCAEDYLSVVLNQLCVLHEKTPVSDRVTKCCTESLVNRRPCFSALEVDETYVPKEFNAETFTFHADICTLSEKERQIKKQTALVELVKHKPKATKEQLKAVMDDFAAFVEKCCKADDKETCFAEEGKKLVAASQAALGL
smiles,measurement,setting,value
CN1C(=O)CN=C(c2ccccc2)c2cc(Cl)ccc21 [Diazepam],Head Twitch,Male Long Evans rats; PO 10 mg/kg,5 and 1 and 9
same,Score,Male Long Evans rats; PO 10 mg/kg,2
N[C@@H](Cc1c[nH]c2ccccc12)C(=O)O [L-Tryptophan],affinity for site II of HSA relative to the other enantiomer,site II of HSA,about 100 times
CC[C@H]1C(C)=NN=C(c2ccc(OC)c(OC)c2)c2cc(OC)c(OC)cc21 [R(+)-tofisopam],stable equilibrium (R+/R-),[1]; MTBE/ACN (90/10) solution at room temperature,80/20
same,converted into R(-)-tofisopam,[1]; left in solution for 24 hours,Approximately 20%
O=C1CCC(N2C(=O)c3ccccc3C2=O)C(=O)N1 (racemic) [racemic thalidomide],solubility relative to its separate isomers,[2],ten times less soluble
"CCC1C(C)=NN=C(c2ccc(OC)c(OC)c2)c2cc(OC)c(OC)cc21 (racemic) [tofisopam, 1-(3,4-dimethoxy-phenyl) - 4-methyl-5-ethyl-7,8-dimethoxy-5H-2,3-benzodiazepine]",binding to the benzodiazepine receptor,benzodiazepine receptor,does not bind to the benzodiazepine receptor
same,binding of BDZs to their receptors,"benzodiazepine receptor; in vivo and in vitro, after acute and chronic treatment",enhances the binding of BDZs to their receptors
same,Head Twitch,Male Long Evans rats; PO 30 mg/kg,0
same,Score,Male Long Evans rats; PO 30 mg/kg,0
same,"anticonvulsive, muscle relaxant or sedative effects",[3],"not have anticonvulsive, muscle relaxant or sedative effects"
same,patients reporting side effects during treatment,"patients; double-blind study, 4 weeks, 57 outpatients with anxiety and depression",twenty-one
same,anxiolytic effect,"patients; multicenter study, 325 patients, 3 weeks, 150-1300 mg/day",effective anxiolytic
"CC[C@H]1C(C)=NN=C(c2ccc(OC)c(OC)c2)c2cc(OC)c(OC)cc21 [R-tofisopam, R-1-(3,4-dimethoxyphenyl)-5-ethyl-7,8-dimethoxy-4-methyl-5H-2,3-benzodiazepine]",Head Twitch,Male Long Evans rats; PO 30 mg/kg,0 and 2 and 1
same,Score,Male Long Evans rats; PO 30 mg/kg,1
same,side effects related to binding to the dopamine (D2L) receptor,dopamine (D2L) receptor,cannot manifest side effects related to binding to the dopamine (D2L) receptor
CC[C@@H]1C(C)=NN=C(c2ccc(OC)c(OC)c2)c2cc(OC)c(OC)cc21 [S-tofisopam],Head Twitch,Male Long Evans rats; PO 30 mg/kg,0
same,Score,Male Long Evans rats; PO 30 mg/kg,0
